Experimental data reported in patent US11286268B1, “EIF4E-inhibiting compounds and methods” (EFFECTOR THERAPEUTICS, INC., priority 2019, dated 2022).

Target: recombinant eIF4E (Homo sapiens (Human), UniProt P06730)
Test: Fluorescence polarization competition assay for eIF4E binding potency
Conditions: inhibition of eIF4E/EDA-m7GDP-ATTO-550 binding; calculated IC50 values, Table 4B; read-out: IC50
Method in brief: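 IC50 derived from fluorescence polarization over an 8-point, 3-fold compound series after 30 min room-temperature equilibration in the dark. Mix: eIF4E 75 nM pre-bound 5 min to 20 nM EDA-m^7GDP-ATTO-550; buffer 20 mM Tris pH 7.5, 100 mM NaCl, 1 mM DTT, 0.02% Tween-20; DMSO 1%.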

Chain of recombinant eIF4E (P06730 whole entry): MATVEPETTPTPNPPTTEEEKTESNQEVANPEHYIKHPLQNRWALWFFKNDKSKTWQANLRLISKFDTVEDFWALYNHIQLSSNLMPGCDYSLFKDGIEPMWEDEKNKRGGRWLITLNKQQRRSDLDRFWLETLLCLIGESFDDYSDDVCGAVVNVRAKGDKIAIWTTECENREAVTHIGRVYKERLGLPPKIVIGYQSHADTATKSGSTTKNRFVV

SMILES	IC50 [µM]
Cc1nc2cnc(N(C)C3CCN(C(C)(C)C(F)(F)F)CC3)c(C#N)c2c(=O)n1CC#Cc1ccc(Cl)cc1-c1ccnc2c(C(=O)O)csc12 [compound 1507]	0.016
Cc1nc2cnc(N(C)C3CCN(C(C)CF)CC3)c(C#N)c2c(=O)n1CC#Cc1ccc(Cl)cc1-c1ccnc2c(C(=O)O)csc12 (stereo not shown) [compound 1508]	0.0174
Cc1nc2cnc(N3CCN(CCCOC(F)F)CC3)c(C#N)c2c(=O)n1CC#Cc1ccc(Cl)cc1-c1ccnc2c(C(=O)O)csc12 [compound 1509]	0.0375
Cc1nc2cnc(N3CCN(C4(COC(F)F)CC4)CC3)c(C#N)c2c(=O)n1CC#Cc1ccc(Cl)cc1-c1ccnc2c(C(=O)O)csc12 [compound 1510]	0.0201
Cc1nc2cnc(N3CCN([C@H]4C[C@@H](OC(F)F)C4)CC3)c(C#N)c2c(=O)n1CC#Cc1ccc(Cl)cc1-c1ccnc2c(C(=O)O)csc12 [compound 1511]	0.0232
Cc1nc2cnc(N3CC4(C3)CN(C3CCC3)C4)c(C#N)c2c(=O)n1CCOc1ccc(Cl)cc1-c1ccnc2c(C(=O)NS(C)(=O)=O)csc12 [compound 1512]	0.0122
Cc1nc2cnc(N(C)C3CCN(CCOC(F)F)CC3)c(C#N)c2c(=O)n1CCOc1ccc(Cl)cc1-c1ccnc2c(C(=O)O)csc12 [compound 1513]	0.0134
Cc1nc2cnc(N(C)C3CCN(C(C)(C)C(F)(F)F)CC3)c(C#N)c2c(=O)n1CCOc1ccc(Cl)cc1-c1ccnc2c(C(=O)O)csc12 [compound 1514]	0.0517
Cc1nc2cnc(N(C)C3CCN(CC(F)(F)C(F)F)CC3)c(C#N)c2c(=O)n1CCOc1ccc(Cl)cc1-c1ccnc2c(C(=O)O)csc12 [compound 1515]	0.0321
Cc1nc2cnc(N3CCN(CC(C)(C)F)CC3)c(C#N)c2c(=O)n1CCOc1ccc(Cl)cc1-c1ccnc2c(C(=O)NS(C)(=O)=O)csc12 [compound 1516]	0.017
Cc1nc2cnc(N(C)C3CCN(C(C)C(F)F)CC3)c(C#N)c2c(=O)n1CC#Cc1ccc(Cl)cc1-c1ccnc2c(C(=O)O)csc12 (stereo not shown) [compound 1518]	0.0107
CC(=O)CN1CCC(N(C)c2ncc3nc(C)n(CC#Cc4ccc(Cl)cc4-c4ccnc5c(C(=O)O)csc45)c(=O)c3c2C#N)CC1 [compound 1519]	0.0153
Cc1nc2cnc(N(C)C3CCN(CCC(F)(F)F)CC3)c(C#N)c2c(=O)n1CC#Cc1ccc(Cl)cc1-c1ccnc2c(C(=O)O)csc12 [compound 1520]	0.0179
Cc1nc2cnc(N(C)C3CCN(C4(C(F)F)CC4)CC3)c(C#N)c2c(=O)n1CC#Cc1ccc(Cl)cc1-c1ccnc2c(C(=O)O)csc12 [compound 1522]	0.0177
Cc1nc2cnc(N(C)C3CCN(C4COC4)CC3)c(C#N)c2c(=O)n1CC#Cc1ccc(Cl)cc1-c1ccnc2c(C(=O)O)csc12 [compound 1523]	0.0131
Cc1nc2cnc(N(C)C3CCN(C4(C)CC4)CC3)c(C#N)c2c(=O)n1CC#Cc1ccc(Cl)cc1-c1ccnc2c(C(=O)O)csc12 [compound 1524]	0.0125
Cc1nc2cnc(N3CC4(CCN4C4CC4)C3)c(C#N)c2c(=O)n1CC#Cc1ccc(Cl)cc1-c1ccnc2c(C(=O)O)csc12 [compound 1525]	0.0151
Cc1nc2cnc(N3CCC(N(C)C4CC4)CC3)c(C#N)c2c(=O)n1CC#Cc1ccc(Cl)cc1-c1ccnc2c(C(=O)O)csc12 [compound 1527]	0.0156
Cc1nc2cnc(N(C)C3CCOCC3)c(C#N)c2c(=O)n1CC#Cc1ccc(Cl)cc1-c1ccnc2c(C(=O)O)csc12 [compound 1528]	0.00631
Cc1nc2cnc(N(C)C3CCN(C4(CF)CC4)CC3)c(C#N)c2c(=O)n1CC#Cc1ccc(Cl)cc1-c1ccnc2c(C(=O)O)csc12 [compound 1529]	0.0201
Cc1nc2cnc(N(C)C3CCN(C4(C(F)(F)F)CC4)CC3)c(C#N)c2c(=O)n1CC#Cc1ccc(Cl)cc1-c1ccnc2c(C(=O)O)csc12 [compound 1530]	0.0335
Cc1nc2cnc(N(C)[C@@H]3C[C@@H]4CN(CC(F)F)C[C@@H]4C3)c(C#N)c2c(=O)n1CC#Cc1ccc(Cl)cc1-c1ccnc2c(C(=O)O)csc12 [compound 1531]	0.0134

More lines, now with the values ahead:

IC50 [µM]	SMILES
0.0112	Cc1nc2cnc(N(C)[C@H]3C[C@H](N(C)CCF)C3)c(C#N)c2c(=O)n1CC#Cc1ccc(Cl)cc1-c1ccnc2c(C(=O)O)csc12 [compound 1532]
0.0217	Cc1nc2cnc(N(C)[C@H]3CC[C@@H](N(C)CCF)CC3)c(C#N)c2c(=O)n1CC#Cc1ccc(Cl)cc1-c1ccnc2c(C(=O)O)csc12 [compound 1533]
0.0158	Cc1nc2cnc(N(C)C3COC3)c(C#N)c2c(=O)n1CC#Cc1ccc(Cl)cc1-c1ccnc2c(C(=O)O)csc12 [compound 1534]
0.0174	CCN(c1ncc2nc(C)n(CC#Cc3ccc(Cl)cc3-c3ccnc4c(C(=O)O)csc34)c(=O)c2c1C#N)C1CCN(CC(F)F)CC1 [compound 1535]
0.0183	Cc1nc2cnc(N(C)C3CCN(CC(F)(F)c4ccn(C)n4)CC3)c(C#N)c2c(=O)n1CC#Cc1ccc(Cl)cc1-c1ccnc2c(C(=O)O)csc12 [compound 1536]
0.0189	Cc1nc2cnc(N(C)C3CCN(C(c4ccn(C)n4)C(F)F)CC3)c(C#N)c2c(=O)n1CC#Cc1ccc(Cl)cc1-c1ccnc2c(C(=O)O)csc12 (stereo not shown) [compound 1537]
0.0145	Cc1nc2cnc(N(C)C3CCN(CC(F)(F)F)CC3)c(C#N)c2c(=O)n1CC#Cc1ccc(Cl)cc1-c1ccnc2c(C(=O)NS(=O)(=O)C(C)C)csc12 [compound 1538]
0.0125	Cc1nc2cnc(N(C)C3CCN(CC(F)(F)F)CC3)c(C#N)c2c(=O)n1CC#Cc1ccc(Cl)cc1-c1ccnc2c(C(=O)NS(=O)(=O)CC(F)F)csc12 [compound 1539]
0.0195	Cc1nc2cnc(N(C)C3CCCN(CC(F)F)C3)c(C#N)c2c(=O)n1CC#Cc1ccc(Cl)cc1-c1ccnc2c(C(=O)O)csc12 (stereo not shown) [compound 1540]
0.0186	Cc1nc2cnc(N(C)CC3CN(CC(F)F)C3)c(C#N)c2c(=O)n1CC#Cc1ccc(Cl)cc1-c1ccnc2c(C(=O)O)csc12 [compound 1542]
0.0205	Cc1nc2cnc(OC3CCN(C4CC(F)(F)C4)CC3)c(C#N)c2c(=O)n1CCOc1ccc(Cl)cc1-c1ccnc2c(C(=O)O)csc12 [compound 1543]
0.0131	Cc1nc2cnc(N3CCC[C@@H]4CN(CC(F)F)CC[C@@H]43)c(C#N)c2c(=O)n1CC#Cc1ccc(Cl)cc1-c1ccnc2c(C(=O)O)csc12 [compound 1544]
0.0275	Cc1nc2cnc(N(C)C3C[C@@H]4C[C@H]3CN4CC(C)(F)F)c(C#N)c2c(=O)n1CC#Cc1ccc(Cl)cc1-c1ccnc2c(C(=O)O)csc12 (stereo partly shown) [compound 1545]
0.0152	Cc1nc2cnc(N(C)C3CCN(CC(F)(F)F)CC3)c(C#N)c2c(=O)n1CC#Cc1ccc(Cl)cc1-c1ccnc2c(C(=O)NS(=O)(=O)C3CC3)csc12 [compound 1547]
0.0362	Cc1nc2cnc(N(C)C3CCN(CC(F)(F)F)CC3)c(C#N)c2c(=O)n1CC#Cc1ccc(Cl)cc1-c1ccnc2c(C(=O)NS(=O)(=O)c3ccccc3)csc12 [compound 1548]
0.0262	Cc1ccccc1S(=O)(=O)NC(=O)c1csc2c(-c3cc(Cl)ccc3C#CCn3c(C)nc4cnc(N(C)C5CCN(CC(F)(F)F)CC5)c(C#N)c4c3=O)ccnc12 [compound 1549]
0.0229	Cc1nc2cnc(N(C)C3CCN(CC(F)(F)F)CC3)c(C#N)c2c(=O)n1CC#Cc1ccc(Cl)cc1-c1ccnc2c(C(=O)NS(=O)(=O)c3ccc(F)cc3F)csc12 [compound 1550]
0.0129	Cc1nc2cnc(N3CCC(N(CC(F)F)C4COC4)CC3)c(C#N)c2c(=O)n1CC#Cc1ccc(Cl)cc1-c1ccnc2c(C(=O)O)csc12 [compound 1553]
